Measured values from patent publication US7018989B2, “Chemical compounds” (University College Cardiff Consultants, LTD, priority 1995, dated 2006).
Where two headings read alike, the source gives them in different places.

Legend:
HIV-2 [1] = assay: Inhibition of HIV-2 in MT4 cells; assay type: cell-based; conditions: read-out: HIV2 MT4: EC50 for inhibition of HIV-2 in MT4 cells
Experimental: (§1) Cells were infected with HIV-1 as previously described [Balzarini et al. AIDS (1991), 5, 21–28]. Briefly, 5×10^5 cells per milliliter were infected with HIV-1 or HIV-2 at 100 CCID50 (50% cell culture infective dose) per milliliter of cell suspension. Then 100 μL of the infected cell suspension was transferred to microtiter plate wells and mixed with 100 μL of the appropriate dilutions of the test compounds. After 4 days giant cell formation was recorded microscopically in the HIV-infected cell cultures [CEM], and after 5 days the number of viable cells was determined by trypan blue staining of the HIV-infected cell cultures [MT4].
(§2) The data columns are, in order: • HIV1 MT4: EC50 in μM for inhibition of HIV-1 in MT4 cells. • HIV2 MT4: EC50 in μM for inhibition of HIV-2 in MT4 cells. • CC50 MT4: CC50 in μM for toxicity to MT-4 cells. • HIV1 CEM: EC50 in μM for inhibition of HIV-1 in CEM cells. • HIV2 CEM: EC50 in μM for inhibition of HIV-2 in CEM cells. • HIV2 CEM-TK-: EC50 in μM for inhibition of HIV-2 in CEM/TK^− cells. • CC50 CEM: CC50 in μM for toxicity to CEM cells. • EC50 MSV: EC50 in μM for inhibition of MSV • MCC MSV: Minimum cytotoxic concentration in MSV assay

HIV-1 [2] = assay: Inhibition of HIV-1 in MT4 cells; assay type: cell-based; conditions: read-out: HIV1 MT4: EC50 for inhibition of HIV-1 in MT4 cells
Experimental: as §1, §2

MT-4 cells = assay: Toxicity to MT-4 cells; assay type: cell-based, human; conditions: read-out: CC50 MT4: CC50 for toxicity to MT-4 cells
Experimental: as §1, §2

HIV-2 [3] = assay: Inhibition of HIV-2 in CEM cells (giant cell formation); assay type: cell-based; conditions: read-out: HIV2 CEM: EC50 for inhibition of HIV-2 in CEM cells
Method in brief: (§3)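 Infection used 100 CCID50 per mL on 5×10^5 cells/mL, followed by exposure to serial compound dilutions. Read-out: microscopic giant cell scoring after 4 days (CEM); trypan blue viable cell count after 5 days (MT-4).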

C8166 cells = assay: Toxicity in C8166 cells (MTT-Formazen); assay type: cell-based; conditions: Table 3
Experimental: (§4) C8166 cells. Cells were grown in RPMI 1640 with 10% calf serum. 4×10^4 cells per microtiter plate well were mixed with 5-fold dilutions of compound prior to addition of 10 CCID50 units of III-B strain of HIV-1 and incubated for 5–7 days (Betbeder et al. Antiviral Chem. Chemother. 1, 241–247, 1990). Formation of syncytia was examined from 2 days post-infection. Culture fluid was collected at 5–7 days and gp120 antigen production measured by ELISA (Mahmood and Hay, J. Immunol. Meth., 151, 9–13, 1992). […] Cell viability of infected and uninfected cells were assessed by the MTT-Formazen method (Pauwels et al. J. Virol. Meth. 20, 309–321, 1988).
(§5) Each assay was carried out in duplicate, on at least two separate occasions, and data quoted are the average of each separate assay.

CEM cells = assay: Toxicity to CEM cells; assay type: cell-based, human; conditions: Table 6; mean of two or more repeat experiments
HIV-1 [4] = assay: microbe, parasite or virus in culture; conditions: read-out: HIV1 CEM: EC50 for inhibition of HIV-1 in CEM cells
Method in brief: as §3

HIV-2 [5] = assay: Inhibition of HIV-2 in CEM/TK- cells; assay type: cell-based
Method in brief: as §3

III-B strain of HIV-1 = assay: microbe, parasite or virus in culture; assay type: cell-based; conditions: for EC50: HIV1 in C8166 cells, Table 3, read-out: Activity EC50
Experimental: as §4, §5

[6] = Table 6, mean of two or more repeat experiments
[7] = Table 6, mean of two or more repeat experiments, read-out: HIV2 CEM-TK-: EC50 for inhibition of HIV-2 in CEM/TK^− cells
[8] = CEM/TK- cells, HIV-2, read-out: HIV2 CEM-TK-: EC50 for inhibition of HIV-2 in CEM/TK- cells

Structure (SMILES) | EC50 (HIV-2 [1]; [6]) [µM] | EC50 (HIV-1 [2]; [6]) [µM] | CC50 (MT-4 cells; [6]) [µM] | EC50 (HIV-2 [3]; [6]) [µM] | CC50 (C8166 cells) [µM] | CC50 (CEM cells) [µM] | EC50 (HIV-1 [4]; [6]) [µM] | EC50 (HIV-2 [5]; [7]) [µM] | Selectivity CC50/EC50 × 10^3 (III-B strain of HIV-1) | EC50 (III-B strain of HIV-1) [µM] | EC50 (HIV-2 [1]; MT4 cells, HIV-2) [µM] | EC50 (HIV-1 [2]; MT4 cells, HIV-1) [µM] | CC50 (MT-4 cells; MT-4 cells) [µM] | EC50 (HIV-2 [3]; CEM cells, HIV-2) [µM] | EC50 (HIV-1 [4]; CEM cells, HIV-1) [µM] | EC50 (HIV-2 [5]; [8]) [µM]
COC(=O)C(CC(C)C)NP(=O)(OCC1C=CC(n2cc(C)c(=O)[nH]c2=O)O1)Oc1ccccc1 (stereo not shown) [Compound 864, 2′,3′-dideoxy-2′,3′-didehydrothymidine-5′-(phenyl N-methoxy-leucinyl) phosphoramidate] | 0.5 | 0.2 | 62 | 2.23 | > 1000 | ≥ 250 | 1.1 | 0.4 | >62.5 × 10^3 | 0.016 | – | – | – | – | – | –
COC(=O)C(NP(=O)(OCC1C=CC(n2cc(C)c(=O)[nH]c2=O)O1)Oc1ccccc1)C(C)C (stereo not shown) [Compound 865, 2′,3′-dideoxy-2′,3′-didehydrothymidine-5′-(phenyl N-methoxyvalinyl) phosphoramidate] | 11.2 | 3.6 | ≥ 250 | 12.5 | > 1000 | > 250 | 12.5 | 4 | >1.25 × 10^3 | 0.8 | – | – | – | – | – | –
Cc1cn(C2C=CC(COP(=O)(NC(Cc3ccccc3)C(=O)OCc3ccccc3)Oc3ccccc3)O2)c(=O)[nH]c1=O (stereo not shown) [Compound 866, 2′,3′-dideoxy-2′,3′-didehydrothymidine-5′-(phenyl N-methoxyglycinyl) phosphoramidate] | 6.7 | 1.3 | ≥ 250 | 6 | > 1000 | ≥ 250 | 6 | 7 | >1.25 × 10^3 | 0.8 | – | – | – | – | – | –
Cc1cn(C2CC(N=[N+]=[N-])C(CO)O2)c(=O)[nH]c1=O (stereo not shown) [Cpd 499] | – | – | – | – | – | – | – | – | – | – | 2.3 | 0.9 | > 250 | 4 | 3 | > 250
COC(=O)[C@H](C)NP(=O)(OCC1OC(n2cc(C)c(=O)[nH]c2=O)CC1N=[N+]=[N-])Oc1ccccc1 (stereo partly drawn) [Compound 462, 3′-Deoxy-3′-β-azidothymidine 5′-(phenylmethoxylalaninyl) phosphoramidate] | – | – | – | – | – | – | – | – | – | – | 11 | 33 | 121 | 40 | 27.5 | 30
CCc1ccc(OP(=O)(N[C@@H](C)C(=O)OC)OCC2C=CC(n3cc(C)c(=O)[nH]c3=O)O2)cc1 (stereo partly shown) [Compound 323, 2′,3′-dideoxy-2′,3′-didehydrothymidine 5′-(p-ethylphenylmethoxyalaninyl) Phosphoramidate] | 0.063 | 0.057 | > 100 | 0.16 | 50 | 60 | 0.07 | 0.06 | 15.6 × 10^3 | 0.0032 | – | – | – | – | – | –
CCOP(=O)(N[C@@H](C)C(=O)OC)OC[C@@H]1C=C[C@H](n2cc(C)c(=O)[nH]c2=O)O1 (stereo partly shown) [Compound 564] | 62.6 | 28.5 | ≥ 250 | > 240 | – | ≥ 250 | > 48 | > 48 | – | – | – | – | – | – | – | –
COC(=O)C(Cc1ccccc1)NP(=O)(OC[C@@H]1C=C[C@H](n2cc(C)c(=O)[nH]c2=O)O1)Oc1ccccc1 (stereo partly shown) [Compound 863, 2′,3′-dideoxy-2′,3′-didehydrothymidine-5′-(phenyl N-methoxy-phenylalaninyl) phosphoramidate] | 0.4 | 0.2 | 34 | 1.35 | 500 | 216 | 0.8 | 0.33 | 31.2 × 10^3 | 0.016 | – | – | – | – | – | –
COC(=O)C(Cc1ccccc1)NP(=O)(OCC1C=CC(n2cc(C)c(=O)[nH]c2=O)O1)OCC(Cl)(Cl)Cl (stereo not shown) [Compound 325] | 0.5 | 0.44 | > 100 | 2 | – | – | 1 | 0.7 | – | – | – | – | – | – | – | –
COC(=O)C(CCSC)NP(=O)(OCC1C=CC(n2cc(C)c(=O)[nH]c2=O)O1)Oc1ccccc1 (stereo not shown) [Compound 867, 2′,3′-dideoxy-2′,3′-didehydrothymidine-5′-(phenyl N-methoxymethioninyl) phosphoramidate] | 0.4 | 0.2 | 22 | 0.8 | > 1000 | ≥ 250 | 0.6 | 0.34 | >62.5 × 10^3 | 0.0016 | – | – | – | – | – | –
COC(=O)[C@H](C)NP(=O)(OCC1OC(n2cc(C)c(=O)[nH]c2=O)CC1N=[N+]=[N-])Oc1cc(Cl)cc(Cl)c1 (stereo partly drawn) [Compound 550, 3′-Deoxy-3′-β-azidothymidine 5′-(3,5-dichlorophenylmethoxylalaninyl) phosphoramidate] | – | – | – | – | – | – | – | – | – | – | 1 | 0.5 | 98 | 3 | 1.4 | 12
COC(=O)C(C)NP(=O)(OC[C@@H]1C=C[C@H](n2cc(C)c(=O)[nH]c2=O)O1)Oc1c(F)c(F)c(F)c(F)c1F (stereo partly shown) [Compound 779, 2′,3′-dideoxy-2′,3′-didehydrothymidine-5′-(2,3,4,5,6-pentafluorophenyl-N-methylalaninyl) phosphoramidate] | 4.01 | 1.72 | 82 | 3.7 | 80 | 115 | 2.5 | 8.5 | 1.25 × 10^3 | 0.064 | – | – | – | – | – | –
COC(=O)[C@H](C)NP(=O)(OC)OC[C@@H]1C=C[C@H](n2cc(C)c(=O)[nH]c2=O)O1 (stereo partly shown) [Compound 740] | 50.9 | 25.4 | > 250 | 50 | – | > 250 | 20 | > 250 | – | – | – | – | – | – | – | –
CCCOP(=O)(N[C@@H](C)C(=O)OC)OC[C@@H]1C=C[C@H](n2cc(C)c(=O)[nH]c2=O)O1 (stereo partly shown) [Compound 326] | 84 | 36 | > 250 | > 230 | – | ≥ 250 | > 230 | 135 | – | – | – | – | – | – | – | –
